Test results reported in patent US8173695B2, “Kappa selective opioid receptor antagonist” (Eli Lilly and Company, priority 2008, dated 2012).
Values joined by “and” are separate entries in the source; they are usually repeats but may differ in a detail not shown here. Identical values can stand only once.

Experiments:
[1] = biological target: T1, kappa receptors (striatum) (Rattus norvegicus, UniProt P34975); assay: Opioid receptor occupancy (RO) in rat brain, tracer GR103545; assay type: in vivo; conditions: 5.5 hrs following oral administration
T1 construct: dose-dependent level of kappa receptor occupancy in the striatum; from tissue; host or cells: striatum of living Sprague Dawley rats

Sprague Dawley rats [2] = assay: Prepulse inhibition, reversal of morphine induced disruption of PPI; assay type: in vivo, rat
[3] = Brain (striatum) exposure levels after oral dosing, LC/MS/MS; assay type: in vivo; conditions: male, Sprague Dawley (Harlan), rat striatum
Description: (§1) Male Harlan Sprague Dawley rats are treated with the compound of Example 1A of the present invention using a 3% lactic acid/water oral formulation at doses of […], 0.3, 1, 3, 10 and 30 mg/kg. […] The increasing levels of kappa receptor occupancy are driven by roughly proportional increases in plasma and brain exposure of the compound of Example 1A of the present invention up to a dose of 30 mg/kg.
Exposure levels of the compound of Example 1A in the rat striatum following administration were determined in the same samples used to quantify the level of opioid receptor occupancy. Levels of Example 1A are detected by LC/MS/MS (API 4000, MDS Sciex) and quantified from a standard curve of Example 1A prepared in rat brain homogenate.

[4] = tested on: alcohol preferring (P) rats; assay: P rat 12 hr ethanol drinking; assay type: in vivo; conditions: p<0.05 versus vehicle
Description: The test animals are selectively-bred alcohol preferring (P) rats. These rats voluntarily consume more than 5 g/kg of ethanol per day and meet all of the perceived criteria for an animal model of alcoholism. They attain blood alcohol contents between 50-200 mg %; they will operant respond to obtain ethanol; they consume ethanol for pharmacological effects and not taste, smell or caloric properties; and they develop metabolic and physiological tolerance and eventually dependence with chronic ethanol access.
Female P rats are obtained from a breeding facility at the Indiana University Medical Center in Indianapolis, Ind., USA. Rats are individually housed in an environmentally controlled facility and maintained on a 12 hr light/dark cycle (lights off at 1500 hours).
All drugs are mixed fresh prior to use and administered in a volume of 1 mL/kg. […]
Following a 4-day acclimation to the colony, rats receive homecage access to a bottle of EtOH (10% v/v; Ancare, Bellmore, N.Y.) in addition to the standard bottle of water. […] Consumption of EtOH and water are monitored for approximately 6-9 months prior to drug testing. Food and fluid intake are measured via force transduction with a PC-controlled Drinking & Feeding Monitoring System (TSE Systems, Bad Homburg, Germany). Consumption of food, water, and 15% (v/v) EtOH are continuously monitored for 12 hrs following drug or vehicle administration. […]

Male Fischer F-344 rats = assay: Stress-induced hyperthermia (in rat); assay type: in vivo; conditions: for stress-induced hyperthermia (T2−T1): in °C
[5] = biological target: T2, delta receptors (striatum) (Rattus norvegicus, UniProt P33533); assay: Opioid receptor occupancy (RO) in rat brain, tracer naltriben; assay type: in vivo
T2 construct: from tissue; host or cells: striatum of living Sprague Dawley rats

[6] = Plasma exposure after oral dosing, LC/MS/MS; assay type: in vivo; conditions: male, Sprague Dawley (Harlan), rat plasma, read-out: Plasma Levels
Description: as §1
Plasma exposure of Example 1A of the present invention in the rat following administration is determined from plasma isolated from trunk blood collected at the time of tissue collection for receptor occupancy. Levels of the compound of Example 1A are detected by LC/MS/MS (API 4000, MDS Sciex) and quantified from a standard curve of Example 1A prepared in vehicle treated rat plasma.

Sprague Dawley rats [7] = assay: Prepulse inhibition, reversal of U69593 induced disruption of PPI; assay type: in vivo, rat
[8] = Study 1, 1, 3 and 10 mg/kg p.o.

T2 sequence (P33533 whole entry): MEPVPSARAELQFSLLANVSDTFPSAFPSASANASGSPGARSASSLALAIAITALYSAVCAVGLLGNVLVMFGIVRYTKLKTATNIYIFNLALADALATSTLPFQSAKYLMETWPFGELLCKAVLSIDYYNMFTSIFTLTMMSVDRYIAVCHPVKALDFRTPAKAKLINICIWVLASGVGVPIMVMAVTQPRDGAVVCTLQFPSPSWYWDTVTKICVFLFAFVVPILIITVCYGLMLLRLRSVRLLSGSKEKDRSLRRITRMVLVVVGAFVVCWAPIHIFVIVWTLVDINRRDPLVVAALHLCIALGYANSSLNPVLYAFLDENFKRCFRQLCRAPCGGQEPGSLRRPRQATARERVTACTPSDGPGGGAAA
T1 sequence (P34975 whole entry): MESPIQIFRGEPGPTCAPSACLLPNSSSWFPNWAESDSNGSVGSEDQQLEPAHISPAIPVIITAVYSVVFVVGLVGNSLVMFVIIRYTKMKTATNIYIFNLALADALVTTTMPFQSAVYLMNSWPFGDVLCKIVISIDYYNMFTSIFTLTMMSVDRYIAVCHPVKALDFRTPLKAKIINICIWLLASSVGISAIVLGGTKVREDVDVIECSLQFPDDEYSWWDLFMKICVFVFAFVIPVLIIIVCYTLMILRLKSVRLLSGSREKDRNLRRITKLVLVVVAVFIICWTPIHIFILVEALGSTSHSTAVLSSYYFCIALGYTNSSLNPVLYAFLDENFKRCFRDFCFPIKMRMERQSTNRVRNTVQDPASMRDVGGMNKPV

ED50 [1]: 0.45 mg/kg | concentration at 5.5 h ([3]; 0.1 mg/kg, oral dose .1 mg/kg): 15.3 ng/g | concentration at 5.5 h ([3]; 0.3 mg/kg, oral dose .3 mg/kg): 7.23 ng/g | concentration at 5.5 h ([3]; oral dose 1 mg/kg): 19.6 ng/g | concentration at 5.5 h ([3]; oral dose 3 mg/kg): 39.2 ng/g | concentration at 5.5 h ([3]; oral dose 10 mg/kg): 171 ng/g | concentration at 5.5 h ([3]; oral dose 30 mg/kg): 266 ng/g | baseline core body temperature (Male Fischer F-344 rats; [8]): not affected | baseline core body temperature (Male Fischer F-344 rats; Study 2, 1, 3 and 10 mg/kg p.o. together with 1 mg/kg chlordiazepoxide): not affected | ED50 ([5]; oral): > 30 mg/kg | delta receptor occupancy ([5]; oral doses up to 30 mg/kg): no significant occupancy | concentration at 5.5 h ([6]; 0.1 mg/kg, oral dose .1): 1.17 ng/g | concentration at 5.5 h ([6]; 0.3 mg/kg, oral dose .3): 2.27 ng/g | concentration at 5.5 h ([6]; 1 mg/kg, oral dose 1): 4.63 ng/g | concentration at 5.5 h ([6]; 3 mg/kg, oral dose 3): 15.4 ng/g | concentration at 5.5 h ([6]; 10 mg/kg, oral dose 10): 65.2 ng/g | concentration at 5.5 h ([6]; 30 mg/kg, oral dose 30): 106 ng/g
Structure (SMILES): Cc1cc(C)cc([C@@H]2CCCN2Cc2ccc(Oc3ccc(C(N)=O)cc3F)cc2)c1 (single isomer, unassigned) [Example 1A]
% Inhibition (PPI), individual rats (Sprague Dawley rats [2]; 10 mg/kg Example 1A p.o./20 mg/kg morphine sc): 42.77% and 21.98% and 40.70% and 0.18% and 21.00% and 21.21% and 50.34% and 26.48% and 18.04% and 21.07% and 29.49% and 50.16% and 18.66% and 63.46% | % Inhibition (PPI), individual rats (Sprague Dawley rats [2]; 30 mg/kg Example 1A p.o./20 mg/kg morphine sc): 30.93% and 6.85% and 16.56% and 54.32% and 18.94% and 45.40% and 42.78% and 46.29% and 39.26% and 20.35% and 40.02% and 8.61% and 57.12% and 41.32% | reversal of sensory motor gating deficits induced by the Mu agonist morphine (Sprague Dawley rats [2]; rats, Table 7): can reverse | amount of ethanol consumed ([4]; 1 mg/kg orally): decreased | amount of ethanol consumed ([4]; 3 mg/kg orally): decreased | stress-induced hyperthermia (T2−T1) (Male Fischer F-344 rats; Study 1, 1 mg/kg po, 60 min pretreatment, body temperature in degrees C.): 0.84±0.07 | stress-induced hyperthermia (T2−T1) (Male Fischer F-344 rats; Study 1, 3 mg/kg po, 60 min pretreatment): 0.80±0.10 | stress-induced hyperthermia (T2−T1) (Male Fischer F-344 rats; Study 1, 10 mg/kg po, 60 min pretreatment): 0.75±0.11 | reduction in stress-induced hyperthermia (T2−T1), in words (Male Fischer F-344 rats; [8]): dose-dependent, but non-significant, reduction | stress-induced hyperthermia (T2−T1) (Male Fischer F-344 rats; Study 2, 10 mg/kg Example 1A alone, po): 0.74±0.04 | reduction in stress-induced hyperthermia, in words (Male Fischer F-344 rats; Study 2, together with 1 mg/kg chlordiazepoxide, significant reduction p<0.05): increases the efficacy of a sub-threshold dose of chlordiazepoxide | % Inhibition (PPI), individual rats (Sprague Dawley rats [7]; 0.1 mg/kg Example 1A p.o./3.0 mg/kg U-69593 sc): 29.86% and 55.18% and 22.97% and 54.62% and 31.90% and 9.79% and 25.88% and 31.40% | % Inhibition (PPI), individual rats (Sprague Dawley rats [7]; 0.3 mg/kg Example 1A p.o./3.0 mg/kg U-69593 sc): 33.74% and −1.75% and 52.00% and 47.01% and 0.52% and 42.14% and 66.71% and 71.91% | % Inhibition (PPI), individual rats (Sprague Dawley rats [7]; 1.0 mg/kg Example 1A p.o./3.0 mg/kg U-69593 sc): 30.08% and 52.23% and 24.91% and 70.96% and 55.10% and 71.68% and 61.05% and 59.31% | reversal of sensory motor gating deficits induced by the Kappa agonist U-69593 (Sprague Dawley rats [7]; rats, Table 6): can reverse
